We go through 24 compounds from patent US9346829B2, “5-HT3 receptor antagonists” (Takeda Phamaceutical Company Limited, priority 2012, dated 2016).

Where a name gives a salt, the structure may show the parent alone. Some results are limits rather than exact numbers.

By IC50 is commonly meant the point on the concentration scale where inhibition reaches its midpoint.

The target of this experiment is 5-HT3a receptor (Homo sapiens (Human), UniProt P46098). Put plainly: Inhibition of Ca flux activity of 5-HT3 in vitro assay. It counts as cell-based. The settings on record: approximate IC50; calcium flux, 5-HT3a expressed in HEK-293T cells, 5HT 216 nM; read-out: IC50. The method, then: The 5-HT3 antagonist activity of the compounds of the invention was determined by measuring the ability of the compounds to inhibit the calcium flux activity of […] receptor expressed in HEK-293T cells. HEK-293T cells were transfected with the 5-HT3a expression construct using Xtreme Gene 9 (Roche) in 150 mm tissue culture treated plates and incubated for 24 hours at 37° C. Cells were then split and plated at a density of 60K cells/well in poly-lysine coated, black 96-well plates with clear bottoms (BD BioSciences) and incubated overnight at 37° C. Growth media was removed and cells loaded with 200 uL calcium indicator dye in HBSS containing 20 mM HEPES (Calcium 5 Assay kit, Molecular Devices) and incubated at 37° C. for 1 hour. While cells were incubating, the 10× antagonist and agonist/antagonist addition plates were made. For 10× antagonist plate: half log serial dilutions (final concentrations range from 10^−7 through 10^−10 with the bottom well a negative, no ligand control) were made from test compounds in DMSO at a 1000× concentration and then diluted to 10× in HBSS/20 mM HEPES. For addition plate: 5HT was diluted to 100× in HBSS/20 mM HEPES (final concentration in the assay—216 nM) and 15 uL was added to each well of the addition plate, 15 uL of 10× compound was also added to the addition plate, and finally 120 uL of HBSS/20 mM HEPES (for a total of 150 uL). Cells were then removed from the incubator and equilibrated to room temperature for 10 minutes, then 22.5 uL of 10× test compounds were added in triplicate to the plates and incubated at room temperature for 10 minutes (Tropisetron was used as a positive control in every assay). Test plate and addition plate were loaded into the FlexStation III (Molecular Devices), and using the fluidics, 22.5 uL compound additions were made (at t=˜17 seconds), and fluorescence was measured for 90 seconds, reading every 2.2 seconds. Data sets were analyzed as max minus min using Software Max Pro (Molecular Devices). IC50 curves were generated using non-linear regression in GraphPad Prism.
Chain of 5-HT3a receptor (P46098 24-478): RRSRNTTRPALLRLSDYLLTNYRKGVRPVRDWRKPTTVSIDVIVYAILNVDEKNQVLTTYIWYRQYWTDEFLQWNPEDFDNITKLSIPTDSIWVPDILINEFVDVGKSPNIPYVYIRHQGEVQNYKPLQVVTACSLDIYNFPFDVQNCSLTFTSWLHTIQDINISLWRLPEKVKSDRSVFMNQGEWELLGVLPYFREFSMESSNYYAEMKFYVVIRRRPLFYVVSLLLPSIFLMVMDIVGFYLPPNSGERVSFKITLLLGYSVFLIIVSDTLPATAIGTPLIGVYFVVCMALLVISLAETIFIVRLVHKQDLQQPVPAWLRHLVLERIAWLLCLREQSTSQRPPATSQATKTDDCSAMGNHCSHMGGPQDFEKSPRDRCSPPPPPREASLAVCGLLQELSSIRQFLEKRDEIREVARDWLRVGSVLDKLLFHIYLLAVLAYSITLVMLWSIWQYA
(Calcium flux is commonly read through the fluorescence of an indicator in the cells.)
Consider `CN1[C@@H]2COC[C@H]1C[C@@H](NC(=O)c1cn(-c3cccnc3)c3ccccc13)C2` [Compound 2, N-((1R,5S,7S)-9-methyl-3-oxa-9-azabicyclo[3.3.1]nonan-7-yl)-1-(pyridin-3-yl)-1H-indole-3-carboxamide, 2,2,2-trifluoroacetate], for which the 50% inhibitory concentration (IC50) is 0.51 nM.

Consider `CN1[C@@H]2COC[C@H]1C[C@@H](NC(=O)c1cn(-c3ccccn3)c3ccccc13)C2` [Compound 3, N-((1R,5S,7S)-9-methyl-3-oxa-9-azabicyclo[3.3.1]nonan-7-yl)-1-(pyridin-2-yl)-1H-indole-3-carboxamide, 2,2,2-trifluoroacetate], for which the IC50 worked out at 0.96 nM.

Take `CN1[C@@H]2COC[C@H]1CC(NC(=O)c1cn(-c3ccncc3)c3ccccc13)C2` (stereo partly drawn) [Compound 4, N-((1R,5S,7S)-9-methyl-3-oxa-9-azabicyclo[3.3.1]nonan-7-yl)-1-(pyridin-4-yl)-1H-indole-3-carboxamide, 2,2,2-trifluoroacetate]: the IC50 stood at 0.69 nM.

On to `O=C(O[C@H]1C[C@H]2COC[C@@H](C1)N2)c1cn(-c2cccnc2)c2ccccc12` [Compound 5, (1R,5S,7S)-3-oxa-9-azabicyclo [3.3.1]nonan-7-yl 1-(pyridin-3-yl)-1H-indole-3-carboxylate, 2,2,2-trifluoroacetate], for which the half-inhibitory concentration (IC50) was 0.62 nM.

On to `CN1[C@@H]2COC[C@H]1CC(NC(=O)c1cn(-c3cccnc3)c3ccccc13)C2` (stereo partly drawn) [Compound 6, N-((1R,5S,7S)-9-methyl-d3-3-oxa-9-azabicyclo[3.3.1]nonan-7-yl)-1-(pyridin-3-yl)-1H-indole-3-carboxamide, 2,2,2-trifluoroacetate], for which the IC50 was found to be 1.1 nM.

Regarding `CN1[C@@H]2COC[C@H]1C[C@@H](OC(=O)c1cn(-c3ccccn3)c3ccccc13)C2` [Compound 7, (1R,5S,7S)-9-methyl-d3-3-oxa-9-azabicyclo[3.3.1]nonan-7-yl 1-(pyridin-2-yl)-1H-indole-3-carboxylate, 2,2,2-trifluoroacetate], the IC50 was found to be 2.86 nM.

As to `CN1[C@@H]2COC[C@H]1C[C@@H](NC(=O)c1cn(-c3ccccn3)c3ccccc13)C2` [Compound 8, N-((1R,5S,7S)-9-methyl-d3-3-oxa-9-azabicyclo[3.3.1]nonan-7-yl)-1-(pyridin-2-yl)-1H-indole-3-carboxamide, 2,2,2-trifluoroacetate], the IC50 is 0.81 nM.

`Cn1cc(-n2cc(C(=O)O[C@H]3C[C@H]4COC[C@@H](C3)N4)c3ccccc32)cn1` [Compound 9, (1R,5S,7S)-3-oxa-9-azabicyclo [3.3.1]nonan-7-yl 1-(1-methyl-1H-pyrazol-4-yl)-1H-indol-3-carboxylate, 2,2,2-trifluoroacetic acid salt]: the IC50 came out at 0.68 nM.

For `CN1[C@@H]2COC[C@H]1C[C@@H](NC(=O)c1cn(-c3ccccn3)c3ncccc13)C2` [Compound 10, N-(1R,5S,7S)-9-methyl-3-oxa-9-azabicyclo[3.3.1]nonan-7-yl)-1-(pyridin-2-yl)-1H-pyrrolo[2,3-b]pyridine-3-carboxamide, 2,2,2-trifluoroacetic acid salt], the IC50 came to 0.65 nM.

Consider `CN1[C@@H]2COC[C@H]1C[C@@H](NC(=O)c1cn(-c3cccnc3)c3ncccc13)C2` [Compound 11, N-((1R,5S,7S)-9-methyl-3-oxa-9-azabicyclo[3.3.l]nonan-7-yl)-1-(pyridin-3-yl)-1H-pyrrolo[2,3-b]pyridine-3-carboxamide, 2,2,2-trifluoroacetic acid salt], for which the IC50 amounted to 0.6 nM.

With `CN1[C@@H]2COC[C@H]1C[C@@H](NC(=O)c1cn(-c3ccccn3)c3ncc(F)cc13)C2` [Compound 12, 5-fluoro-N-((1R,5S,7S)-9-methyl-3-oxa-9-azabicyclo [3.3.1]nonan-7-yl)-1-(pyridin-2-yl)-1H-pyrrolo[2,3-b]pyridine-3-carboxamide, 2,2,2-trifluoroacetic acid salt], the IC50 was determined as 0.882 nM.

As to `CN1[C@@H]2COC[C@H]1C[C@@H](NC(=O)c1cn(-c3cccnc3)c3ncc(F)cc13)C2` [Compound 13, 5-fluoro-N-((1R,5S,7S)-9-methyl-3-oxa-9-azabicyclo [3.3.1]nonan-7-yl)-1-(pyridin-3-yl)-1H-pyrrolo[2,3-b]pyridine-3-carboxamide, 2,2,2-trifluoroacetic acid salt], the IC50 is 0.72 nM.

`CN1[C@@H]2COC[C@H]1C[C@@H](NC(=O)c1nn(-c3ccccn3)c3ccccc13)C2` [Compound 14, N-((1R,5S,7S)-9-methyl-3-oxa-9-azabicyclo[3.3.1]nonan-7-yl)-1-(pyridin-2-yl)-1H-indazole-3-carboxamide, 2,2,2-trifluoroacetic acid salt]: the IC50 was 1.34 nM.

As to `Cn1ccc(-n2cc(C(=O)O[C@H]3C[C@H]4COC[C@@H](C3)N4)c3ccccc32)n1` [Compound 16, (1R,5S,7S)-3-oxa-9-azabicyclo[3.3.1]nonan-7-yl 1-(1-methyl-1H-pyrazol-3-yl)-1H-indole-3-carboxylate, 2,2,2-trifluoroacetic acid salt], the IC50 was determined as 2.5 nM.

On to `CN1[C@@H]2COC[C@H]1C[C@@H](NC(=O)c1cn(-c3ccn(C)n3)c3ccccc13)C2` [Compound 17, 1-(1-methyl-1H-pyrazol-3-yl)-N-((1R,5S,7S)-9-methyl-3-oxa-9-azabicyclo [3.3.1]nonan-7-yl)-1H-indole-3-carboxamide, 2,2,2-trifluoroacetic acid salt], for which the concentration for half-maximal inhibition (IC50) worked out at 0.75 nM.

Take `CN1[C@@H]2COC[C@H]1C[C@@H](OC(=O)c1cn(-c3cnn(CCF)c3)c3ccccc13)C2` [Compound 18, (1R,5S,7S)-9-methyl-3-oxa-9-azabicyclo[3.3.1]nonan-7-yl 1-(1-(2-fluoroethyl)-1H-pyrazol-4-yl)-1H-indole-3-carboxylate, 2,2,2-trifluoroacetic acid salt]: the IC50 was determined as 2.01 nM.

As for `N#Cc1cc(-n2cc(C(=O)O[C@H]3C[C@H]4COC[C@@H](C3)N4)c3ccccc32)ccn1` [Compound 19, (1R,5S,7S)-3-oxa-9-azabicyclo[3.3.1]nonan-7-yl 1-(2-cyanopyridin-4-yl)-1H-indole-3-carboxylate, 2,2,2-trifluoroacetic acid salt], the IC50 worked out at 3.68 nM.

On to `Cc1ncccc1-n1cc(C(=O)N[C@H]2C[C@H]3COC[C@@H](C2)N3C)c2ccccc21` [Compound 20, N-((1R,5S,7S)-9-methyl-3-oxa-9-azabicyclo[3.3.1]nonan-7-yl)-1-(2-methylpyridin-3-yl)-1H-indole-3-carboxamide, 2,2,2-trifluoroacetic acid salt], for which the IC50 came out at 1.5 nM.

For `Cc1ccncc1-n1cc(C(=O)N[C@H]2C[C@H]3COC[C@@H](C2)N3C)c2ccccc21` [Compound 21, N-((1R,5S,7S)-9-methyl-3-oxa-9-azabicyclo[3.3.1]nonan-7-yl)-1-(4-methylpyridin-3-yl)-1H-indole-3-carboxamide, 2,2,2-trifluoroacetic acid salt], the IC50 was found to be 1.1 nM.

As for `CN1[C@@H]2COC[C@H]1C[C@@H](NC(=O)c1cn(-c3ccnn3C)c3ccccc13)C2` [Compound 23, 1-(1-methyl-1H-pyrazol-5-yl)-N-((1R,5S,7S)-9-methyl-3-oxa-9-azabicyclo[3.3.1]nonan-7-yl)-1H-indole-3-carboxamide, 2,2,2-trifluoroacetic acid salt], the concentration for half-maximal inhibition (IC50) amounted to 1.01 nM.

`CN1[C@@H]2COC[C@H]1C[C@@H](NC(=O)c1cn(-c3cnn(C(F)F)c3)c3ccccc13)C2` [Compound 25, 1-(1-(difluoromethyl)-1H-pyrazol-4-yl)-N-((1R,5S,7S)-9-methyl-3-oxa-9-azabicyclo [3.3.1]nonan-7-yl)-1H-indole-3-carboxamide]: the IC50 amounted to 1.39 nM.

With `Cn1cc(-n2cc(C(=O)N[C@H]3C[C@H]4COC[C@@H](C3)N4)c3ccccc32)cn1` [Compound 28, N-((1R,5S,7S)-3-oxa-9-azabicyclo[3.3.1]nonan-7-yl)-1-(1-methyl-1H-pyrazol-4-yl)-1H-indole-3-carboxamide], the IC50 worked out at 2.04 nM.

On to `O=C(N[C@H]1C[C@H]2COC[C@@H](C1)N2)c1cn(-c2cn[nH]c2)c2ccccc12` [Compound 30, N-((1R,5S,7S)-3-oxa-9-azabicyclo[3.3.1]nonan-7-yl)-1-(1H-pyrazol-4-yl)-1H-indole-3-carboxamide], for which the IC50 was 0.745 nM.

Consider `CCN1[C@@H]2COC[C@H]1C[C@@H](NC(=O)c1cn(-c3cnn(C)c3)c3ccccc13)C2` [Compound 31, N-((1R,5S,7S)-9-ethyl-3-oxa-9-azabicyclo[3.3.1]nonan-7-yl)-1-(1-methyl-1H-pyrazol-4-yl)-1H-indole-3-carboxamide], for which the IC50 was above 1000 nM.
